Laboratory results as given in paper PMC9316000, “Preclinical Drug Pharmacokinetic, Tissue Distribution and Excretion Profiles of the Novel Limonin Derivate HY-071085 as an Anti-Inflammatory and Analgesic Candidate in Rats and Beagle Dogs” (Pharmaceuticals, 2022).
Where two headings read alike, the source gives them in different places.

Experiments:
[1] = Pharmacokinetics after single-dose intragastric administration in beagle dogs; assay type: in vivo; details: both sexes, dog, plasma; for bioavailability: 1.25 mg/kg intragastric vs intravenous, from AUC0-∞, read-out: absolute oral bioavailability; for AUC: read-out: AUC0-tn; for Vd/F: read-out: Vss/F
Method: Male and female beagle dogs were administered low (1.25 mg/kg), medium (2.5 mg/kg) and high (5 mg/kg) doses of HY-071085 by gastric gavage, and blood samples were collected from the forelimb vein at various time points before and 8 h after administration in order to analyze the concentration of HY-071085 in the plasma. The profiles of the mean plasma concentration of HY-071085 versus time in dogs are presented in Figure 7, and the PK parameters are listed in Table 2. There was no gender difference in the pharmacokinetics in dogs (Figure 8). The AUCtn ratio for the three doses was 1:3.8:11.9, and the AUC0-∞ ratio between doses was 1:3.6:11.3, which was greater than the dose increase ratio (1:2:4), as shown in Figures S3 and S4.
(§1) In vivo PK profiling in dogs: Beagle dogs (approximately 8–10 kg in weight) were purchased from Jiangsu Yadong Experimental Animal Research Institute Co. Ltd (Nanjing, China). Before the experiment, several beagle dogs were randomly divided into several groups, half males and half females in each group. Four cycles of single-dose administration experiments were carried out, and the cleaning period was 3–5 days. Repeated-dose administration was carried out after the end of four cycles of single-dose administrations and cleaning periods. According to the dosage for the rats, the dosage for the beagle dogs was converted via the body surface area method. The HY-071085 active pharmaceutical ingredients were administered with a dosage volume of 2 mL/kg body weight. The whole-blood samples were centrifuged at 8000 rpm for 5 min, and the plasma samples were separated and stored at –80 °C until the analysis.
(§2) According to the obtained plasma concentration time data, the pharmacokinetic parameters were calculated using Phoenix WinNonlin 8.1 software. The pharmacokinetic parameters—i.e., the area under the curve (AUC), mean residence time (MRT), clearance rate (Cl/F) and steady-state apparent distribution volume (Vss/F)—were calculated by the method of moments, which was estimated according to the following formulae: AUCtn=∑Ci+Ci−1ti−ti−1/2 AUC∞=AUCtn+Cm/λ AUMCtn=∑tiCi+ti−1Ci−1ti−ti−1/2 AUMC∞=AUMCtn+Ctntn/λ+1/λ^2 MRT=AUMC∞/AUC∞ Cl/F=Dose/AUC Vss/F=Cl∗MRT where Ctn is the plasma concentration of tn at the last point after administration, and the elimination rate constant was obtained by ln(concentration) time linear regression.
(§3) Due to the drug having significant individual differences in rats, it could not be uniformly fitted with a PK atrioventricular model; as such, the pharmacokinetic parameters analyzed in this study were calculated using a non-atrioventricular model. The pharmacokinetic parameters are defined as follows: Cmax is the maximum blood concentration after administration and absorption, Tmax is the time required to reach Cmax, t1/2 is the time required to eliminate half of the plasma drug concentration after the drug distribution in the body reaches equilibrium, Cl/F is the apparent clearance rate, AUC0-tn is the area under the blood concentration time curve within the dosing interval, AUC0-∞ is the area under the plasma concentration time curve from 0 to infinity, MRT is the average time that all drug molecules stay in the body, and Vss/F is the steady-state apparent distribution volume, which is the product of the clearance rate and average residence time.

[2] = design: method as in earlier work; details: Temp 25℃; cited from earlier work
[3] = Pharmacokinetics after single-dose intravenous administration in beagle dogs; assay type: in vivo; details: S-IV 1.25 mg/kg
Method: After the intravenous administration of 1.25 mg/kg HY-071085, there was also no gender difference for the plasma concentration time data in Figure 9.
as §1, §2, §3

[4] = po, single-dose intragastric 2.5 mg/kg

Work on `CC1(C)OC2CC(=O)OCC23C1C/C(=N\OCCN1CCOCC1)C1(C)C3CC[C@@]2(C)[C@H](c3ccoc3)OC(=O)C3OC312` (stereo partly drawn) [HY-071085, (12S,12aS,E)-12-(furan-3-yl)-6,6,8a,12a-tetramethyl-8-((2-morpholinoethoxy)imino)dodecahydro-1H,3H-oxireno [2,3-d]pyrano [4’,3’:3,3a]isobenzofuro [5,4-f]isochromene-3,10(9aH)-dione] yielded a bioavailability ([1]; oral) of 13.1%, a bioavailability ([1]; po) of ~13.1% and an AUC(0-inf) ([1]; po, S-IG 1.25 mg/kg) of 54.1 ± 25.4 ng·h/mL. The CL/F ([1]; po, S-IG 1.25 mg/kg) was 517 mL/min/kg, the Cmax ([1]; po, S-IG 1.25 mg/kg) was 37.9 ± 20.1 ng/mL and the MRT ([1]; po, S-IG 1.25 mg/kg) was 80.4 ± 31.8 min. The Tmax ([1]; po, S-IG 1.25 mg/kg) was 29.4 ± 25.8 min, the half-life ([1]; po, S-IG 1.25 mg/kg) was 52.8 ± 26.4 min and the AUC ([1]; po, S-IG 1.25 mg/kg) was 51.1 ± 24.9 ng·h/mL. For the same compound, the Vd/F ([1]; po, S-IG 1.25 mg/kg) was 35.3 ± 19.1 L/kg, the AUC(0-inf) ([1]; po, S-IG 5 mg/kg) was 610 ± 235 ng·h/mL and the CL/F ([1]; po, S-IG 5 mg/kg) was 156 mL/min/kg. For the same compound, the Cmax ([1]; po, S-IG 5 mg/kg) was 436 ± 206 ng/mL, the MRT ([1]; po, S-IG 5 mg/kg) was 87.6 ± 29.4 min and the Tmax ([1]; po, S-IG 5 mg/kg) was 41.4 ± 33 min. For the same compound, the half-life ([1]; po, S-IG 5 mg/kg) was 49.8 ± 7.8 min, the AUC ([1]; po, S-IG 5 mg/kg) was 606 ± 236 ng·h/mL and the Vd/F ([1]; po, S-IG 5 mg/kg) was 11.5 ± 6.03 L/kg. The AUC(0-inf) [1, 4] was 195 ± 90 ng·h/mL, the half-life [1, 4] was 49.8 ± 7.2 min and the Intrinsic solubility [2] was 4500 µg/mL. It also gave a Cl/F [3] of 51.2 ± 24.2 mL/min/kg, a Vss/F [3] of 2.07 ± 1.17 L/kg and an AUC(0-inf) ([3]; both sexes, dog, plasma) of 594 ± 538 ng·h/mL. It also gave a Cmax ([3]; both sexes, dog, plasma) of 1200 ± 1510 ng/mL, an MRT ([3]; both sexes, dog, plasma) of 37.2 ± 12 min and a Tmax ([3]; both sexes, dog, plasma) of 5.4 ± 1.8 min. It also gave a half-life ([3]; both sexes, dog, plasma) of 42 ± 5.4 min and an AUC ([3]; both sexes, dog, plasma, read-out: AUC0-tn) of 591 ± 539 ng·h/mL.
